Reference: patent US7041698B2, “Hepatitis C virus inhibitors” (Bristol-Myers Squibb Company, priority 2002, dated 2006)
Where two headings read alike, the source gives them in different places.

Key:
[1] = target: T1, HCV NS3/4A protease complex (UniProt P27958, C1454S/C1711G, species not given); experiment: Recombinant HCV NS3/4A protease complex FRET peptide assay (strain not stated); format: biochemical
T1 construct: fused on or other part: Three-lysine solubilising tail at the C-terminus of NS4A

[2] = test system: HCV replicon in Huh7 cells; experiment: HCV replicon cell-based assay; set-up: species or system HCV strain 1B; conditions: Hepatitis C virus, Huh-7, 96 h, HCV replicon, 4 days, read-out: EC50 range
Excerpt: HCV Replicon Cell-based Assay
An HCV replicon whole cell system was established as described by Lohmann V, Komer F, Koch J, Herian U, Theilmann L, Bartenschlager R., Science 285(5424):110–3 (1999). This system enabled us to evaluate the effects of our HCV Protease compounds on HCV RNA replication. Briefly, using the HCV strain 1B sequence described in the Lohmann paper (Assession number:AJ238799), an HCV cDNA was generated encoding the 5′ internal ribosome entry site (IRES), the neomycin resistance gene, the EMCV (encephalomyocarditis viurs)-IRES and the HCV nonstructural proteins, NS3-NS5B, and 3′ non-translated region (NTR). In vitro transcripts of the cDNA were transfected into the human hepatoma cell line, Huh7. […] Resulting cell lines were characterized for positive and negative strand RNA production and protein production over time.
Huh7 cells, constitutively expressing the HCV replicon, were grown in Dulbecco's Modified Eagle Media (DMEM) containing 10% Fetal calf serum (FCS) and 1 mg/ml G418 (Gibco-BRL). Cells were seeded the night before (1.5×10^4 cells/well) in 96-well tissue-culture sterile plates. Compound and no compound controls were prepared in DMEM containing 4% FCS, 1:100 Penicillin/Streptomysin, 1:100 L-glutamine and 5% DMSO in the dilution plate (0.5% DMSO final concentration in the assay). Compound/DMSO mixes were added to the cells and incubated for 4 days at 37° C. After 4 days, plates were rinsed thoroughly with Phosphate-Buffered Saline (PBS) (3 times 150 μl). The cells were lysed with 25 μl of a lysis assay reagent containing the FRET peptide (RET S1, as described for the in vitro enzyme assay). The lysis assay reagent was made from 5× cell Luciferase cell culture lysis reagent (Promega #E153A) diluted to 1× with distilled water, NaCl added to 150 mM final, the FRET peptide diluted to 10 μM final from a 2 mM stock in 100% DMSO. The plate was then placed into the Cytofluor 4000 instrument which had been set to 340 nm excitation/490 emission, automatic mode for 21 cycles and the plate read in a kinetic mode. EC50 determinations were carried out as described for the IC50 determinations.
As a secondary assay, EC50 determinations from the replicon FRET assay were confirmed in a quantitative RNA assay. Cells were lyzed using the Rneasy kit (Qiagen). Purified total RNA was normalized using RiboGreen (Jones L J, Yue S T, Cheung C Y, Singer V L, Anal. Chem., 265(2):368–74 (1998)) and relative quantitation of HCV RNA expression assessed using the Taqman procedure (Kolykhalov A A, Mihalik K, Feinstone S M, Rice C M, Journal of Virology 74, 2046–2051 (2000)) and the Platinum Quantitative RT-PCR Thermoscript One-Step kit (Invitrogen cat # 11731-015). Briefly, RNA made to a volume of 5 μl (<1 ng) was added to a 20 μl Ready-Mix containing the following: 1.25× Thermoscript reaction mix (containing Magnesium Sulfate and 2-deoxynucleoside 5′-triphosphates (dNTPs)), 3 mM dNTPs, 200 nM forward primer (sequence: 5′-[…]-3′), 600 nM reverse primer (5′-[…]-3′), 100 nM probe (5′-6-FAM-[…]-BHQ-1-3′)(FAM: Fluorescein-aminohexyl amidite; BHQ: Black Hole Quencher), 1 μM Rbx reference dye (Invitrogen cat # 12223-012) and Thermoscript Plus Platinum Taq polymerase mixture. All primers were designed with ABI Prism 7700 software and obtained from Biosearch Technologies, Novato, Calif. Samples containing known concentrations of HCV RNA transcript were run as standards. Using the following cycling protocol (50° C., 30 min; 95° C., 5 min; 40 cycles of 95° C., 15 sec, 60° C., 1 min), HCV RNA expression was quantitated as described in the Perkin Elmer manual using the ABI Prism 7700 Sequence Detector.
The luciferase reporter assay was also used to confirm compound potency in the replicon. Utilization of a replicon luciferase reporter assay was first described by Krieger et al (Krieger N, Lohmann V, and Bartenschlager R, J. Virol. 75(10):4614–4624 (2001)). […]

[3] = HCV NS3/4A protease enzyme assay, read-out: IC50 range
[4] = read-out: IC50 range, HCV NS3/4A protease enzyme assay

SMILES | IC50 [1, 3] | EC50 [2] | IC50 [1, 4]
C=CC1C[C@]1(NC(=O)[C@@H]1C[C@@H](OC(=O)Nc2cc(C)ccc2F)CN1C(=O)[C@@H](NC(=O)OC(C)(C)C)C(C)(C)C)C(=O)NS(=O)(=O)C1CC1 (stereo partly drawn) [Compound 21, BocNH-P3(t-BuGly)-P2(Hyp(O—CO(NH—(2-fluoro-5-methyl-phenyl))))-P1(1R,2S VinylAcca)—CONHSO2Cyclopropane] | < 100 nM | 100 to 1000 nM | –
C=CC1C[C@]1(NC(=O)[C@@H]1C[C@@H](OC(=O)Nc2cc(Cl)cc(Cl)c2)CN1C(=O)[C@@H](NC(=O)OC(C)(C)C)C(C)(C)C)C(=O)NS(=O)(=O)C1CC1 (stereo partly drawn) [Compound 23, BocNH-P3(t-BuGly)-P2(Hyp(O—CO(NH—(3,5-dichloro-phenyl))))-P1(1R,2S VinylAcca)—CONHSO2Cyclopropane] | – | 100 to 1000 nM | < 100 nM
C=CC1C[C@]1(NC(=O)[C@@H]1C[C@@H](OC(=O)NCc2cccc(F)c2)CN1C(=O)[C@@H](NC(=O)OC(C)(C)C)C(C)(C)C)C(=O)NS(=O)(=O)C1CC1 (stereo partly drawn) [Compound 24, BocNH-P3(t-BuGly)-P2(Hyp(O—CO(NH—(3-fluoro-benzyl))))-P1(1R,2S VinylAcca)—CONHSO2Cyclopropane] | 100 to 1000 nM | > 10000 nM | –
C=CC1C[C@]1(NC(=O)[C@@H]1C[C@@H](OC(=O)Nc2cccc(CC)c2)CN1C(=O)[C@@H](NC(=O)OC(C)(C)C)C(C)(C)C)C(=O)NS(=O)(=O)C1CC1 (stereo partly drawn) [Compound 25, BocNH-P3(t-BuGly)-P2(Hyp(O—CO(NH—(3-ethyl-phenyl))))-P1(1R,2S VinylAcca)—CONHSO2Cyclopropane] | < 100 nM | 1000 to 10000 nM | –
C=CC1C[C@]1(NC(=O)[C@@H]1C[C@@H](OC(=O)NCc2ccccc2Cl)CN1C(=O)[C@@H](NC(=O)OC(C)(C)C)C(C)(C)C)C(=O)NS(=O)(=O)C1CC1 (stereo partly drawn) [Compound 26, BocNH-P3(t-BuGly)-P2(Hyp(O—CO(NH—(2-chloro-benzyl))))-P1(1R,2S VinylAcca)—CONHSO2Cyclopropane] | < 100 nM | 1000 to 10000 nM | –
C=CC1C[C@]1(NC(=O)[C@@H]1C[C@@H](OC(=O)Nc2cccc(OC)c2)CN1C(=O)[C@@H](NC(=O)OC(C)(C)C)C(C)(C)C)C(=O)NS(=O)(=O)C1CC1 (stereo partly drawn) [Compound 27, BocNH-P3(t-BuGly)-P2(Hyp(O—CO(NH—(3-methoxy-phenyl))))-P1(1R,2S VinylAcca)—CONHSO2Cyclopropane] | < 100 nM | 1000 to 10000 nM | –
C=CC1C[C@]1(NC(=O)[C@@H]1C[C@@H](OC(=O)Nc2cccc(C(=O)OCC)c2)CN1C(=O)[C@@H](NC(=O)OC(C)(C)C)C(C)(C)C)C(=O)NS(=O)(=O)C1CC1 (stereo partly drawn) [Compound 28, BocNH-P3(t-BuGly)-P2(Hyp(O—CO(NH—(3-benzoic acid ethyl ester))))-P1(1R,2S VinylAcca)—CONHSO2Cyclopropane] | 100 to 1000 nM | 1000 to 10000 nM | –
C=CC1C[C@]1(NC(=O)[C@@H]1C[C@@H](OC(=O)Nc2ccccc2SC)CN1C(=O)[C@@H](NC(=O)OC(C)(C)C)C(C)(C)C)C(=O)NS(=O)(=O)C1CC1 (stereo partly drawn) [Compound 29, BocNH-P3(t-BuGly)-P2(Hyp(O—CO(NH—(2-methylsulfanyl-phenyl))))-P1(1R,2S VinylAcca)—CONHSO2Cyclopropane] | < 100 nM | 100 to 1000 nM | –
C=CC1C[C@]1(NC(=O)[C@@H]1C[C@@H](OC(=O)Nc2ccccc2C(=O)OC)CN1C(=O)[C@@H](NC(=O)OC(C)(C)C)C(C)(C)C)C(=O)NS(=O)(=O)C1CC1 (stereo partly drawn) [Compound 30, BocNH-P3(t-BuGly)-P2(Hyp(O—CO(NH—(2-benzoic acid methyl ester))))-P1(1R,2S VinylAcca)—CONHSO2Cyclopropane] | < 100 nM | < 100 nM | –
C=CC1C[C@]1(NC(=O)[C@@H]1C[C@@H](OC(=O)Nc2cccc(Cl)c2Cl)CN1C(=O)[C@@H](NC(=O)OC(C)(C)C)C(C)(C)C)C(=O)NS(=O)(=O)C1CC1 (stereo partly drawn) [Compound 31, BocNH-P3(t-BuGly)-P2(Hyp(O—CO(NH—(2,3-dichloro-phenyl))))-P1(1R,2S VinylAcca)—CONHSO2Cyclopropane] | < 100 nM | 100 to 1000 nM | –
C=CC1C[C@]1(NC(=O)[C@@H]1C[C@@H](OC(=O)n2c3ccccc3c3ccccc32)CN1C(=O)[C@@H](NC(=O)OC(C)(C)C)C(C)(C)C)C(=O)NS(=O)(=O)C1CC1 (stereo partly drawn) [Compound 32, BocNH-P3(t-BuGly)-P2(Hyp(O—CO(N-(9-carbazolyl))))-P1(1R,2S VinylAcca)—CONHSO2Cyclopropane] | < 100 nM | < 100 nM | –
C=CC1C[C@]1(NC(=O)[C@@H]1C[C@@H](OC(=O)Nc2ccccc2Br)CN1C(=O)[C@@H](NC(=O)OC(C)(C)C)C(C)(C)C)C(=O)NS(=O)(=O)C1CC1 (stereo partly drawn) [Compound 33, BocNH-P3(t-BuGly)-P2(Hyp(O—CO(NH—(2-bromo-phenyl))))-P1(1R,2S VinylAcca)—CONHSO2Cyclopropane] | 100 to 1000 nM | 100 to 1000 nM | –
C=CC1C[C@]1(NC(=O)[C@@H]1C[C@@H](OC(=O)Nc2cccc(C(F)(F)F)c2)CN1C(=O)[C@@H](NC(=O)OC(C)(C)C)C(C)(C)C)C(=O)NS(=O)(=O)C1CC1 (stereo partly drawn) [Compound 34, BocNH-P3(t-BuGly)-P2(Hyp(O—CO(NH—(3-trifluoromethyl-phenyl))))-P1(1R,2S VinylAcca)—CONHSO2Cyclopropane] | 100 to 1000 nM | 1000 to 10000 nM | –
C=CC1C[C@]1(NC(=O)[C@@H]1C[C@@H](OC(=O)Nc2nc(Cl)c(Cl)nc2C(=O)OC)CN1C(=O)[C@@H](NC(=O)OC(C)(C)C)C(C)(C)C)C(=O)NS(=O)(=O)C1CC1 (stereo partly drawn) [Compound 35, BocNH-P3(t-BuGly)-P2(Hyp(O—CO(NH-3-(5,6-Dichloro-pyrazine-2-carboxylic acid methyl ester))))-P1(1R,2S VinylAcca)—CONHSO2Cyclopropane] | < 100 nM | > 10000 nM | –
C=CC1C[C@]1(NC(=O)[C@@H]1C[C@@H](OC(=O)N2CCc3ccccc32)CN1C(=O)[C@@H](NC(=O)OC(C)(C)C)C(C)(C)C)C(=O)NS(=O)(=O)C1CC1 (stereo partly drawn) [Compound 36, BocNH-P3(t-BuGly)-P2(Hyp(O—CO(N-(1-indolinyl))))-P1(1R,2S VinylAcca)—CONHSO2Cyclopropane] | < 100 nM | 100 to 1000 nM | –
C=CC1C[C@]1(NC(=O)[C@@H]1C[C@@H](OC(=O)Nc2cccc(SC)c2)CN1C(=O)[C@@H](NC(=O)OC(C)(C)C)C(C)(C)C)C(=O)NS(=O)(=O)C1CC1 (stereo partly drawn) [Compound 37, BocNH-P3(t-BuGly)-P2(Hyp(O—CO(NH—(3-methylsulfanyl-phenyl))))-P1(1R,2S VinylAcca)—CONHSO2Cyclopropane] | < 100 nM | 1000 to 10000 nM | –
C=CC1C[C@]1(NC(=O)[C@@H]1C[C@@H](OC(=O)Nc2cc(C)ccc2Cl)CN1C(=O)[C@@H](NC(=O)OC(C)(C)C)C(C)(C)C)C(=O)NS(=O)(=O)C1CC1 (stereo partly drawn) [Compound 38, BocNH-P3(t-BuGly)-P2(Hyp(O—CO(NH—(2-chloro-5-methyl-phenyl))))-P1(1R,2S VinylAcca)—CONHSO2Cyclopropane] | < 100 nM | 100 to 1000 nM | –
C=CC1C[C@]1(NC(=O)[C@@H]1C[C@@H](OC(=O)N(c2ccccc2)c2ccccc2)CN1C(=O)[C@@H](NC(=O)OC(C)(C)C)C(C)(C)C)C(=O)NS(=O)(=O)C1CC1 (stereo partly drawn) [Compound 39, BocNH-P3(t-BuGly)-P2(Hyp(O—CO(N,N-diphenyl)))-P1(1R,2S VinylAcca)—CONHSO2Cyclopropane] | – | 100 to 1000 nM | < 100 nM
